Patent US20240239775A1, “FXR REGULATOR, PREPARATION METHOD THEREFOR, PHARMACEUTICAL COMPOSITION THEREOF AND USE THEREOF” (QINGDAO RUIJI MEDICAL TECHNOLOGY CO., LTD., priority 2021, published 2024)

Columns and labels:
FXR = target: T1, FXR (Homo sapiens, UniProt Q96RI1); experiment: FXR antagonist screening by TR-FRET (LanthaScreen TR-FRET FXR co-activation assay kit); format: biochemical; conditions: Table 1.1, FXR antagonistic activity; TR-FRET with CDCA; geometric means of at least two independent runs
T1 construct: 5 μL of 20 nM FXR-LBD Complete Coregulator buffer G; purchased ThermoFisher PV4833
T1 sequence (Q96RI1 262-486 limits assumed): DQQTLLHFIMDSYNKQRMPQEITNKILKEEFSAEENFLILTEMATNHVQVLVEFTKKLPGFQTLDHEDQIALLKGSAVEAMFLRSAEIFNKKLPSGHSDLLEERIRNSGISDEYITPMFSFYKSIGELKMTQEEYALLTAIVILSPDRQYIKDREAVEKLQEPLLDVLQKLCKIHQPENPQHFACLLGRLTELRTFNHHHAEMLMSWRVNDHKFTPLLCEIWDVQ
Procedure, shortened: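 FXR-LBD (20 nM working solution) mixed with compound, CDCA (200 μM working solution) as agonist, Fluorescein-SRC2-2 and Tb-anti-GST antibody in Coregulator buffer G; 10 h at room temperature. Coactivator recruitment read by TR-FRET, triplicate wells.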

| Structure (SMILES) | IC50 (FXR) | melting point |
| --- | --- | --- |
| Cc1c(C(=O)O)oc2ccc(S(=O)(=O)N(CCc3ccccc3)Cc3ccc(Br)cc3F)cc12 [Example F27-S53, 3-methyl-5-(N-(2-fluoro-4-bromobenzyl)-N-phenethylsulfamoyl)benzofuran-2-carboxylic acid] | 10 to 50 µM | > 380 °C (dec.) |
| Cc1c(C(=O)O)oc2ccc(S(=O)(=O)N(CCc3ccccc3)Cc3ccc(C(F)(F)F)cc3F)cc12 [Example F27-S55, 3-methyl-5-(N-(2-fluoro-4-(trifluoromethyl)benzyl)-N-phenethylsulfamoyl)benzofuran-2-carboxylic acid] | 50 to 100 µM | 174 to 175 °C |
| Cc1c(C(=O)O)oc2ccc(S(=O)(=O)N(CCc3ccccc3)Cc3ccc(F)cc3Cl)cc12 [Example F27-S56, 3-methyl-5-(N-(2-chloro-4-fluorobenzyl)-N-phenethylsulfamoyl)benzofuran-2-carboxylic acid] | 10 to 50 µM | 145 to 146 °C |
| Cc1c(C(=O)O)oc2ccc(S(=O)(=O)N(CCc3ccccc3)Cc3ccc(F)cc3C(F)(F)F)cc12 [Example F27-S57, 3-methyl-5-(N-(2-(trifluoromethyl)-4-fluorobenzyl)-N-phenethylsulfamoyl)benzofuran-2-carboxylic acid] | 10 to 50 µM | 156 to 157 °C |
| Cc1c(C(=O)O)oc2ccc(S(=O)(=O)N(CCc3ccccc3)Cc3ccc(C(F)(F)F)cc3C(F)(F)F)cc12 [Example F27-S58, 3-methyl-5-(N-(2,4-bis(trifluoromethyl)benzyl)-N-phenethylsulfamoyl)benzofuran-2-carboxylic acid] | 50 to 100 µM | 155 to 156 °C |
| Cc1c(C(=O)O)oc2ccc(S(=O)(=O)N(CCc3ccccc3)Cc3ccc(Br)cc3C(F)(F)F)cc12 [Example F27-S59, 3-methyl-5-(N-(2-(trifluoromethyl)-4-bromobenzyl)-N-phenethylsulfamoyl)benzofuran-2-carboxylic acid] | 50 to 100 µM | 150 to 151 °C |
| Cc1c(C(=O)O)oc2ccc(S(=O)(=O)N(CCc3ccccc3)Cc3ccc(Cl)cc3Cl)cc12 [Example F27-S60, 3-methyl-5-(N-(2,4-dichlorobenzyl)-N-phenethylsulfamoyl)benzofuran-2-carboxylic acid] | 10 to 50 µM | 177 to 178 °C |
| Cc1ccc(F)cc1CN(CCc1ccccc1)S(=O)(=O)c1ccc2oc(C(=O)O)c(C)c2c1 [Example F27-S61, 3-methyl-5-(N-(2-methyl-5-fluorobenzyl)-N-phenethylsulfamoyl)benzofuran-2-carboxylic acid] | 10 to 50 µM | > 380 °C (dec.) |
| Cc1c(C(=O)O)oc2ccc(S(=O)(=O)N(CCc3ccccc3)Cc3c(F)cc(Cl)cc3F)cc12 [Example F27-S62, 3-methyl-5-(N-(2,6-difluoro-4-chlorobenzyl)-N-phenethylsulfamoyl)benzofuran-2-carboxylic acid] | 10 to 50 µM | > 380 °C (dec.) |
| Cc1c(C(=O)O)oc2ccc(S(=O)(=O)N(CCc3ccccc3)c3ccc(N4CCOCC4)cc3)cc12 [Example F27-S63, 3-methyl-5-(N-(4-morpholinophenyl)-N-phenethylsulfamoyl)benzofuran-2-carboxyli acid] | 50 to 100 µM | > 380 °C (dec.) |
| Cc1c(C(=O)O)oc2ccc(S(=O)(=O)N(CCc3ccccc3)c3ccc(N4CCN(C)CC4)cc3)cc12 [Example F27-S64, 3-methyl-5-(N-(4-(4-methylpiperazin-1-yl)phenyl)-N-phenethylsulfamoyl)benzofuran-2-carboxylic acid] | 50 to 100 µM | 152 to 153 °C |
| Cc1c(C(=O)O)oc2ccc(S(=O)(=O)N(CCc3ccccc3)c3ccc(N4CCN(C(=O)OC(C)(C)C)CC4)cc3)cc12 [Example F27-S65, 3-methyl-5-(N-(4-(4-(tert-butoxycarbonyl)piperazin-1-yl)phenyl)-N-phenethylsulfamoyl)benzofuran-2-carboxylic acid] | 10 to 50 µM | > 380 °C (dec.) |
| Cc1c(C(=O)O)oc2ccc(S(=O)(=O)N(CCc3ccccc3)c3ccc(N4CCN(C(=O)CC(C)(C)C)CC4)cc3)cc12 [Example F27-S66, 3-methyl-5-(N-(4-(4-(3,3-dimethylbutyryl)piperazin-1-yl)phenyl)-N-phenethylsulfamoyl)benzofuran-2-carboxylic acid] | 10 to 50 µM | > 380 °C (dec.) |
| CCCOC(=O)N1CCN(c2ccc(N(CCc3ccccc3)S(=O)(=O)c3ccc4oc(C(=O)O)c(C)c4c3)cc2)CC1 [Example F27-S67, 3-methyl-5-(N-(4-(4-(propoxycarbonyl)piperazin-1-yl)phenyl)-N-phenethylsulfamoyl)benzofuran-2-carboxylic acid] | 10 to 50 µM | > 380 °C (dec.) |
| CC(=O)N1CCN(c2ccc(N(CCc3ccccc3)S(=O)(=O)c3ccc4oc(C(=O)O)c(C)c4c3)cc2)CC1 [Example F27-S68, 3-methyl-5-(N-(4-(4-acetylpiperazin-1-yl)phenyl)-N-phenethylsulfamoyl)benzofuran-2-carboxylic acid] | 50 to 100 µM | 183 to 184 °C |
| Cc1c(C(=O)O)oc2ccc(S(=O)(=O)N(CCc3ccccc3)c3ccc(N4CCN(C(=O)c5ccccc5)CC4)cc3)cc12 [Example F27-S69, 3-methyl-5-(N-(4-(4-benzoylpiperazin-1-yl)phenyl)-N-phenethylsulfamoyl)benzofuran-2-carboxylic acid] | 10 to 50 µM | > 380 °C (dec.) |
| Cc1c(C(=O)O)oc2ccc(S(=O)(=O)N(CCc3ccccc3)c3ccc(N4CCN(Cc5ccccc5)CC4)cc3)cc12 [Example F27-S70, 3-methyl-5-(N-(4-(4-benzylpiperazin-1-yl)phenyl)-N-phenethylsulfamoyl)benzofuran-2-carboxylic acid] | 10 to 50 µM | > 380 °C (dec.) |
| Cc1c(C(=O)O)oc2ccc(S(=O)(=O)N(CCc3ccccc3)c3ccc(N4CCN(C(=O)N(C)C)CC4)cc3)cc12 [Example F27-S71, 3-methyl-5-(N-(4-(4-(dimethylcarbamoyl)piperazin-1-yl)phenyl)-N-phenethylsulfamoyl)benzofuran-2-carboxylic acid] | 50 to 100 µM | 192 to 193 °C |
| Cc1c(C(=O)O)oc2ccc(S(=O)(=O)N(CCc3ccccc3)c3ccc(C4CCN(C(=O)OC(C)(C)C)CC4)cc3)cc12 [Example F27-S73, 3-methyl-5-(N-(4-(1-(tert-butoxycarbonyl)piperidin-4-yl)phenyl)-N-phenethylsulfamoyl)benzofuran-2-carboxylic acid] | 0.1 to 10 µM | > 380 °C (dec.) |
| Cc1c(C(=O)O)oc2ccc(S(=O)(=O)N(CCc3ccccc3)c3ccc(N4CCN(C(=O)OC(C)(C)C)CC4)c(C(F)(F)F)c3)cc12 [Example F27-S74, 3-methyl-5-(N-(4-(4-(tert-butoxycarbonyl)piperazin-1-yl)-3-(trifluoromethyl)phenyl)-N-phenethylsulfamoyl)benzofuran-2-carboxylic acid] | 0.1 to 10 µM | 215 to 216 °C |
| Cc1c(C(=O)O)oc2ccc(S(=O)(=O)N(CCc3ccccc3)c3ccc(N4CCN(C(=O)OC(C)(C)C)CC4)nc3)cc12 [Example F27-S75, 3-methyl-5-(N-(6-(4-(tert-butoxycarbonyl)piperazin-1-yl)pyridin-3-yl)-N-phenethylsulfamoyl)benzofuran-2-carboxylic acid] | 10 to 50 µM | > 380 °C (dec.) |
| Cc1c(C(=O)O)oc2ccc(S(=O)(=O)N(CCc3ccccc3)c3ccc(CN4CCN(C(=O)OC(C)(C)C)CC4)cc3)cc12 [Example F27-S76, 3-methyl-5-(N-(4-((4-(tert-butoxycarbonyl)piperazin-1-yl)methyl)phenyl)-N-phenethylsulfonamide)benzofuran-2-carboxylic acid] | 10 to 50 µM | 234 to 235 °C |
| Cc1c(C(=O)O)oc2ccc(S(=O)(=O)N(CCc3ccccc3)c3ccccc3N3CCN(C(=O)OC(C)(C)C)CC3)cc12 [Example F27-S77, 3-methyl-5-(N-(2-(4-(tert-butoxycarbonyl)piperazin-1-yl)phenyl)-N-phenethylsulfamoyl)benzofuran-2-carboxylic acid] | 0.1 to 10 µM | 168 to 169 °C |
| Cc1c(C(=O)O)oc2ccc(S(=O)(=O)N(CCc3ccccc3)c3cccc(N4CCN(C)CC4)c3)cc12 [Example F27-S78, 3-methyl-5-(N-(3-(4-methylpiperazin-1-yl)phenyl)-N-phenethylsulfamoyl)benzofuran-2-carboxylic acid] | 50 to 100 µM | 232 to 233 °C |
| Cc1c(C(=O)O)oc2ccc(S(=O)(=O)N(CCc3ccccc3)Cc3ccc(N4CCOCC4)cc3)cc12 [Example F27-S79] | 50 to 100 µM | > 380 °C (dec.) |
| Cc1c(C(=O)O)oc2ccc(S(=O)(=O)N(CCc3ccccc3)Cc3ccc(-c4ccccc4)cc3)cc12 [Example F27-S82, 3-methyl-5-(N-([1,1′-biphenyl]-4-ylmethyl)-N-phenethylsulfamoyl)benzofuran-2-carboxylic acid] | 50 to 100 µM | > 380 °C (dec.) |
| Cc1c(C(=O)O)oc2ccc(S(=O)(=O)N(CCc3ccccc3)Cc3ccc(-c4ccccc4C#N)cc3)cc12 [Example F27-S83] | 10 to 50 µM | 197 to 198 °C |
